Test system: C57BL/6 mice, diffuse TBI
Test: Rotarod after TBI
Assay type: in vivo, mouse
Settings: 10 mg/kg i.p. 30 min prior to TBI, 2, 5 and 7 DPI
Experimental: 30 min prior to TBI or sham injury, mice were randomly assigned to a therapeutic group and received an intraperitoneal injection of 2LS80Mel (10 mg/kg) or sterile saline (0.25 ml). Groups were as follows: TBI-2LS80Mel n = 17; TBI-vehicle n = 17; sham n = 22 (vehicle n = 11, 2LS80Mel n = 11).
For injury induction 24 h post-surgery, mice were re-anesthetized with 5% isoflurane delivered for 3 min. The cap was removed from the injury-hub assembly and the dura was visually inspected through the hub to ensure it was intact with no debris. […] Injured mice were monitored for presence of a forearm fencing response and righting reflex times were recorded as indicators of injury severity ([Hosseini and Lifshitz, 2009]). […] After spontaneously righting, mice were placed in a heated recovery cage and monitored until they were ambulatory (approximately 5–15 min) before being returned to their piezoelectric sleep cage (see below). […]
Sensorimotor function was assessed using the Rotor-Rod system (San Diego Instruments) as we have previously published ([Rowe et al., 2018]). […] Following acclimation, mice were trained over three consecutive days prior to surgery/injury and the last training session was recorded as baseline. […]

## CC[C@H](C)[C@H](NC(=O)CNC(=O)[C@H](CC(=O)O)NC(=O)[C@H](CO)NC(=O)[C@@H](N)Cc1c[nH]cn1)C(=O)N[C@@H](Cc1ccccc1)C(=O)N[C@H](C(=O)N[C@@H](CC(=O)O)C(=O)N[C@@H](CO)C(=O)N[C@@H](Cc1ccc(O)cc1)C(=O)N[C@@H](CO)C(=O)N[C@@H](CCCNC(=N)N)C(=O)N[C@@H](Cc1ccc(O)cc1)C(=O)N[C@@H](CCCNC(=N)N)C(=O)N[C@@H](CCCCN)C(=O)N[C@@H](CCC(N)=O)C(=O)N[C@@H](CC(C)C)C(=O)N[C@@H](C)C(=O)N[C@H](C(=O)N[C@@H](CCCCN)C(=O)N[C@@H](CCCCN)C(=O)N[C@@H](Cc1ccc(O)cc1)C(=O)N[C@@H](CC(C)C)C(=O)N[C@@H](C)C(=O)N[C@@H](C)C(=O)N[C@H](C(=O)N[C@@H](CC(C)C)C(=O)N[C@@H](CO[C@@H]1O[C@H](CO[C@H]2O[C@H](CO)[C@H](O)[C@H](O)[C@H]2O)[C@@H](O)[C@H](O)[C@H]1O)C(N)=O)C(C)C)C(C)C)[C@@H](C)O [Compound 2LS80Mel]
  Rotarod latency to fall: comparable to uninjured shams at all time points post-injury

Source: PMC8887546, “Design and Synthesis of Brain Penetrant Glycopeptide Analogues of PACAP With Neuroprotective Potential for Traumatic Brain Injury and Parkinsonism” (Frontiers in drug discovery, 2022)
